Results from PubChem BioAssay AID2060499 (Molecular Pharmacology Branch, DTP, NCI, 2025).

System: 777334-354-R2-J4-PDC tumor spheroids with HUVEC/MSC, viability
Experiment: Anticancer human tumor 777334-354-R2-J4-PDC patient-derived pancreatic adenocarcinoma cell line growth inhibition [GQUAD]
Conditions: for IC50: curve of first compound; for viability, T/C: stronger effect = lower value
From the text: DNA G-quadruplex Stabilizer Agents in Combinations in Complex Spheroids
A high-throughput screen of multi-cell type tumor spheroids was designed to identify active combinations of DNA G-quadruplex stabilizer agents and targeted small molecules. Complex spheroids include a stromal component modeled by human endothelial cells (HUVEC) and fibroblasts modeled by human mesenchymal stem cells (MSCs). The concentration ranges selected for each drug and investigational agent were based upon clinically achievable concentrations if the clinical Cmax of the agent was known.
Compounds. The drugs and investigational agents: pidnarulex (CX-5461; NSC782164), APTO-253 (NSC789042), BRACO-19 (NSC847499), peposertib (NSC802822), ceralasertib (NSC780249), elimusertib (NSC800525), camonsertib (NSC841442), AZD-1390 (NSC803789), olaparib (NSC753686), talazoparib (NSC767125), ART-558 (NSC835418), sotorasib (NSC818433), MRTX-1133 (NSC836407), SN-38 (NSC673596), topotecan (NSC609699), etoposide (NSC141540), doxorubicin (NSC123127), gemcitabine (NSC613327), 5-fluorouracil (NSC19893), paclitaxel (NSC125973), vemurafenib (NSC761431), panobinostat (NSC761190), R-306465 (JNJ-16241199; NSC773264), adavosertib (NSC754352), TP-3654 (NSC805149), carboplatin (NSC241240), KSQ-4279 (NSC840948), and staurosporine (NSC755774) were obtained from the National Cancer Institute (NCI) Developmental Therapeutics Program Chemical Repository (34). The FDA-approved anticancer drug set is available from the NCI Developmental Therapeutics Program. […] The stock solutions were prepared in dimethyl sulfoxide (DMSO, Sigma-Aldrich, St. Louis, MO, cat. D2650) at 800-fold the tested concentration and stored at -70 degrees C prior to their use. All drugs and investigational agents were tested over a range starting from a high concentration at or near the clinical Cmax and decreasing in half-log increments. If the clinical Cmax for an agent had not been determined, the highest concentration tested was 10 microM.
2.3 Cell Culture. All cells were maintained in an incubator at 37 degrees C and 5% CO2 with 95% humidity. The PDC lines were cultured according to standard operating procedures established by the NCI PDMR. All PDCs were thawed and cultured in Matrigel-coated flasks prepared with a working solution of 1X Ham's F-12 nutrient mix, without supplementation (Invitrogen, cat. 11765054), 100 U/mL penicillin-streptomycin (Invitrogen, cat. 15140122), and 2.5% Matrigel (Corning Inc., cat. 354248) for the first three passages. The 857933-349-R-J2-PDC line was cultured in 6C/Colon 1B media, which includes advanced DMEM/F-12 (Thermo Fisher Scientific, cat. 12634028), 10 mM HEPES (Thermo Fisher Scientific, cat. 15630080), 1X GlutaMAX supplement (Thermo Fisher Scientific, cat. 35050061), 0.1 mg/mL primocin (InvivoGen, cat. ant-pm-2), 10% defined fetal bovine serum, heat inactivated (HyClone Laboratories Inc., cat. SH30070.03HI), 50% L-WRN conditioned media (ATCC, cat. CRL-3276), 1.25 mM N-Acetyl-L-cysteine (Sigma-Aldrich, cat. A9165), 10 mM nicotinamide (Sigma-Aldrich, cat. N0636), 1X B-27 supplement (Thermo Fisher Scientific, cat. 17504044), 1X N-2 supplement (Thermo Fisher Scientific, cat. 17502048), 10 microM Y-27632 dihydrochloride (Tocris Bioscience, cat. 1254), and 50 ng/mL human EGF recombinant protein (Thermo Fisher Scientific, cat. PHG0311). The 485176-168-R4-J1-PDC line was cultured in Panc media, which includes all 6C/Colon 1B media components plus 100 ng/mL human FGF-10 (Thermo Fisher Scientific, cat. 100-26), 500 nM SB-431542 (Selleckchem, cat. S1067), and gastrin (Tocris, cat. 3006).
[…]

[1] = second compound 0.0316 µM, first compound 0.0316 µM
[2] = second compound 0.0316 µM, first compound 0.316 µM
[3] = second compound 0.1 µM, first compound 0.0316 µM
[4] = second compound 0.1 µM, first compound 0.316 µM
[5] = second compound 0.316 µM, first compound 0.0316 µM
[6] = second compound 0.316 µM, first compound 0.316 µM
[7] = second compound 1 µM, first compound 0.0316 µM
[8] = second compound 1 µM, first compound 0.316 µM
[9] = second compound 3.16 µM, first compound 0.0316 µM
[10] = second compound 3.16 µM, first compound 0.316 µM
[11] = second compound 10 µM, first compound 0.0316 µM
[12] = second compound 10 µM, first compound 0.316 µM
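Also: spheroids exposed to compounds for 7 days before readout.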

CCc1c2c(nc3ccc(O)cc13)-c1cc3c(c(=O)n1C2)COC(=O)[C@]3(O)CC + Cc1[nH]c2ccc(F)cc2c1-c1nc2c3cccnc3c3ncccc3c2[nH]1
IC50 (second compound 0.0316 µM): 5.58 nM
IC50 (second compound 0.1 µM): 6.14 nM
IC50 (second compound 0.316 µM): 5.57 nM
IC50 (second compound 1 µM): 3.44 nM
IC50 (second compound 3.16 µM): < 0.999 nM
IC50 (second compound 10 µM): < 0.999 nM
viability, T/C (second compound 0.0316 µM, first compound 0.000999 µM): 85.3%
viability, T/C (second compound 0.0316 µM, first compound 0.00316 µM): 54.5%
viability, T/C (second compound 0.0316 µM, first compound 0.00999 µM): 44.7%
viability, T/C [1]: 27.3%
viability, T/C (second compound 0.0316 µM, first compound 0.0999 µM): 15%
viability, T/C [2]: 9.55%
viability, T/C (second compound 0.1 µM, first compound 0.000999 µM): 92.8%
viability, T/C (second compound 0.1 µM, first compound 0.00316 µM): 60.4%
viability, T/C (second compound 0.1 µM, first compound 0.00999 µM): 45%
viability, T/C [3]: 22.2%
viability, T/C (second compound 0.1 µM, first compound 0.0999 µM): 14.7%
viability, T/C [4]: 9.29%
viability, T/C (second compound 0.316 µM, first compound 0.000999 µM): 83.6%
viability, T/C (second compound 0.316 µM, first compound 0.00316 µM): 60.9%
viability, T/C (second compound 0.316 µM, first compound 0.00999 µM): 38.2%
viability, T/C [5]: 26.4%
viability, T/C (second compound 0.316 µM, first compound 0.0999 µM): 18.1%
viability, T/C [6]: 11.1%
viability, T/C (second compound 1 µM, first compound 0.000999 µM): 70.7%
viability, T/C (second compound 1 µM, first compound 0.00316 µM): 51.1%
viability, T/C (second compound 1 µM, first compound 0.00999 µM): 34.9%
viability, T/C [7]: 23.9%
viability, T/C (second compound 1 µM, first compound 0.0999 µM): 16.9%
viability, T/C [8]: 8.25%
viability, T/C (second compound 3.16 µM, first compound 0.000999 µM): 34.4%
viability, T/C (second compound 3.16 µM, first compound 0.00316 µM): 20.1%
viability, T/C (second compound 3.16 µM, first compound 0.00999 µM): 15.9%
viability, T/C [9]: 9.11%
viability, T/C (second compound 3.16 µM, first compound 0.0999 µM): 7.06%
viability, T/C [10]: 4.83%
viability, T/C (second compound 10 µM, first compound 0.000999 µM): 26%
viability, T/C (second compound 10 µM, first compound 0.00316 µM): 17.6%
viability, T/C (second compound 10 µM, first compound 0.00999 µM): 13.1%
viability, T/C [11]: 7.08%
viability, T/C (second compound 10 µM, first compound 0.0999 µM): 6.95%
viability, T/C [12]: 5.09%

Nc1ccn(C2OC(CO)C(O)C2(F)F)c(=O)n1 (centres undefined) + Cc1[nH]c2ccc(F)cc2c1-c1nc2c3cccnc3c3ncccc3c2[nH]1
IC50 (second compound 0.0316 µM): 931 nM
IC50 (second compound 0.1 µM): 1140 nM
IC50 (second compound 0.316 µM): 809 nM
IC50 (second compound 1 µM): 466 nM
IC50 (second compound 3.16 µM): < 31.6 nM
IC50 (second compound 10 µM): < 31.6 nM
viability, T/C [1]: 88%
viability, T/C (second compound 0.0316 µM, first compound 0.1 µM): 67.5%
viability, T/C [2]: 65%
viability, T/C (second compound 0.0316 µM, first compound 1 µM): 46.3%
viability, T/C (second compound 0.0316 µM, first compound 3.16 µM): 41.6%
viability, T/C (second compound 0.0316 µM, first compound 10 µM): 34%
viability, T/C [3]: 90.2%
viability, T/C (second compound 0.1 µM, first compound 0.1 µM): 74%
viability, T/C [4]: 69.2%
viability, T/C (second compound 0.1 µM, first compound 1 µM): 47.6%
viability, T/C (second compound 0.1 µM, first compound 3.16 µM): 41.3%
viability, T/C (second compound 0.1 µM, first compound 10 µM): 32.1%
viability, T/C [5]: 75.5%
viability, T/C (second compound 0.316 µM, first compound 0.1 µM): 84.7%
viability, T/C [6]: 59.4%
viability, T/C (second compound 0.316 µM, first compound 1 µM): 49.7%
viability, T/C (second compound 0.316 µM, first compound 3.16 µM): 39.8%
viability, T/C (second compound 0.316 µM, first compound 10 µM): 35.5%
viability, T/C [7]: 73.5%
viability, T/C (second compound 1 µM, first compound 0.1 µM): 68%
viability, T/C [8]: 52.6%
viability, T/C (second compound 1 µM, first compound 1 µM): 40.7%
viability, T/C (second compound 1 µM, first compound 3.16 µM): 39.4%
viability, T/C (second compound 1 µM, first compound 10 µM): 29.3%
viability, T/C [9]: 36.6%
viability, T/C (second compound 3.16 µM, first compound 0.1 µM): 31.7%
viability, T/C [10]: 30.7%
viability, T/C (second compound 3.16 µM, first compound 1 µM): 13.8%
viability, T/C (second compound 3.16 µM, first compound 3.16 µM): 13.6%
viability, T/C (second compound 3.16 µM, first compound 10 µM): 12.9%
viability, T/C [11]: 30%
viability, T/C (second compound 10 µM, first compound 0.1 µM): 26.9%
viability, T/C [12]: 16.2%
viability, T/C (second compound 10 µM, first compound 1 µM): 10.3%
viability, T/C (second compound 10 µM, first compound 3.16 µM): 8.66%
viability, T/C (second compound 10 µM, first compound 10 µM): 7.59%
